In the supplement of paper PMC10307832 one finds relative viability data, which are given here for 19 cell lines.

Compound in experiment [1]: C#Cc1cccc(Nc2ncnc3cc(OC)c(OCCCCCCC(=O)NO)cc23)c1 [CUDC-101] + CC(C)C[C@H](NC(=O)[C@H](Cc1ccccc1)NC(=O)c1cnccn1)B(O)O [Bortezomib] (partner 0.002 µM)
Nature of the experiment: relative viability (nuclei count vs DMSO), 5 days (fraction); higher = more cells survive. In short, it runs like this: (§1)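 After 5 days of treatment, lung cancer cells in 1536-well plates were fixed and stained in a single step (final 0.05% Triton X-100, 1% formaldehyde, 1 ug/ml Hoechst) and their nuclei counted on 4× images. Treatment had been applied by pin tool the day after seeding as one drug alone or as a fixed anchor-drug dose with five library-drug doses (not always all listed) in √10 steps. Relative viability is the nuclei count of treated wells divided by that of vehicle wells, and values are medians of duplicate plates.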

Compound in experiment [2]: COc1cc(N2CCC(N3CCN(C)CC3)CC2)ccc1Nc1ncc(Cl)c(Nc2ccccc2S(=O)(=O)C(C)C)n1 [NVP-TAE684] + CS(=O)(=O)N1CCN(Cc2cc3nc(-c4cccc5[nH]ncc45)nc(N4CCOCC4)c3s2)CC1 [Pictilisib] (partner 1 µM)
The experiment is described as above. In short, it runs like this:
as §1

For LCLC-103H, the relative viability in experiment [1] (first compound 0.01 µM) is 1.17; in experiment [1] (first compound 0.03162 µM), 1.03; in experiment [1] (first compound 0.1 µM) it was 1.01; in experiment [1] (first compound 0.3162 µM), 1.14; in experiment [1] (first compound 1 µM) it was 0.68; in experiment [2] (first compound 0.2 µM), 0.71. For the same cell line, the results for the relative viability in experiment [2] (first compound 0.6325 µM) and in experiment [2] (first compound 2 µM) were 0.567 and 0.451, respectively.

Regarding LOU-NH91, the relative viability turned out to be 0.544 in experiment [1] (first compound 0.01 µM); 0.488 in experiment [1] (first compound 0.03162 µM); 0.452 in experiment [1] (first compound 0.1 µM); 0.405 in experiment [1] (first compound 0.3162 µM); 0.448 in experiment [1] (first compound 1 µM); 0.635 in experiment [2] (first compound 0.2 µM). The results for the relative viability in experiment [2] (first compound 0.6325 µM) and in experiment [2] (first compound 2 µM) were 0.462 and 0.481, respectively.

Take NCI-H1915: the relative viability in experiment [1] (first compound 0.01 µM) came out at 1.01; in experiment [1] (first compound 0.03162 µM), 1.01; in experiment [1] (first compound 0.1 µM) it was 0.982; in experiment [1] (first compound 0.3162 µM), 0.936; in experiment [1] (first compound 1 µM) it was 0.836; in experiment [2] (first compound 0.2 µM), 0.98. Further, the relative viability in experiment [2] (first compound 0.6325 µM) came out at 0.932; in experiment [2] (first compound 2 µM), 0.874.

Consider NCI-H1395, for which the relative viability in experiment [2] (first compound 0.2 µM) came to 0.659; in experiment [2] (first compound 0.6325 µM), 0.61; in experiment [2] (first compound 2 µM), 0.589.

On to NCI-H1563, for which the relative viability in experiment [1] (first compound 0.01 µM) was 0.842; in experiment [1] (first compound 0.03162 µM), 0.712; in experiment [1] (first compound 0.1 µM) it was 0.948; in experiment [1] (first compound 0.3162 µM) it was 0.916; in experiment [1] (first compound 1 µM) it was 0.792; in experiment [2] (first compound 0.2 µM), 0.597. Besides, the relative viability in experiment [2] (first compound 0.6325 µM) was 0.63; in experiment [2] (first compound 2 µM) it was 0.495.

As for COR-L23, the relative viability was 1.1 in experiment [1] (first compound 0.01 µM); 0.967 in experiment [1] (first compound 0.03162 µM); 0.957 in experiment [1] (first compound 0.1 µM); 0.895 in experiment [1] (first compound 0.3162 µM); 0.647 in experiment [1] (first compound 1 µM); 0.51 in experiment [2] (first compound 0.2 µM). In addition, the relative viability amounted to 0.442 in experiment [2] (first compound 0.6325 µM) and 0.173 in experiment [2] (first compound 2 µM).

For EBC-1, the relative viability in experiment [1] (first compound 0.01 µM) worked out at 0.658; in experiment [1] (first compound 0.03162 µM), 0.421; in experiment [1] (first compound 0.1 µM) it was 0.409; in experiment [1] (first compound 0.3162 µM), 0.245; in experiment [1] (first compound 1 µM), 0.153; in experiment [2] (first compound 0.2 µM), 0.364. The relative viability in experiment [2] (first compound 0.6325 µM) came to 0.348; in experiment [2] (first compound 2 µM), 0.212.

Take NCI-H1734: the relative viability in experiment [1] (first compound 0.01 µM) was determined as 1.12; in experiment [1] (first compound 0.03162 µM) it was 0.919; in experiment [1] (first compound 0.1 µM), 0.874; in experiment [1] (first compound 0.3162 µM), 0.956; in experiment [1] (first compound 1 µM), 0.478; in experiment [2] (first compound 0.2 µM) it was 0.422. The relative viability was 0.364 in experiment [2] (first compound 0.6325 µM) and 0.336 in experiment [2] (first compound 2 µM).

On to NCI-H2405, for which the relative viability in experiment [1] (first compound 0.01 µM) is 0.969; in experiment [1] (first compound 0.03162 µM), 1.04; in experiment [1] (first compound 0.1 µM) it was 0.936; in experiment [1] (first compound 0.3162 µM), 1.02; in experiment [1] (first compound 1 µM), 0.982; in experiment [2] (first compound 0.2 µM), 0.522. Also, the relative viability in experiment [2] (first compound 0.6325 µM) was 0.348; in experiment [2] (first compound 2 µM) it was 0.284.

With NCI-H2087, the relative viability amounted to 0.813 in experiment [1] (first compound 0.01 µM); 0.871 in experiment [1] (first compound 0.03162 µM); 0.614 in experiment [1] (first compound 0.1 µM); 0.754 in experiment [1] (first compound 0.3162 µM); 0.445 in experiment [1] (first compound 1 µM); 0.942 in experiment [2] (first compound 0.2 µM). Also, the relative viability in experiment [2] (first compound 0.6325 µM) amounted to 0.886; in experiment [2] (first compound 2 µM) it was 0.858.

NCI-H1793: the results for the relative viability in experiment [2] (first compound 0.2 µM), in experiment [2] (first compound 0.6325 µM) and in experiment [2] (first compound 2 µM) were 0.426, 0.326 and 0.519, respectively.

In the case of NCI-H2085, the relative viability in experiment [1] (first compound 0.01 µM) was 1.07; in experiment [1] (first compound 0.03162 µM) it was 1.08; in experiment [1] (first compound 0.1 µM), 0.97; in experiment [1] (first compound 0.3162 µM) it was 1.06; in experiment [1] (first compound 1 µM) it was 0.915; in experiment [2] (first compound 0.2 µM), 0.445. The relative viability in experiment [2] (first compound 0.6325 µM) was found to be 0.427; in experiment [2] (first compound 2 µM) it was 0.415.

On to NCI-H358, for which the relative viability in experiment [2] (first compound 0.2 µM) came to 0.305; in experiment [2] (first compound 0.6325 µM) it was 0.261; in experiment [2] (first compound 2 µM), 0.219.

As for NCI-H2023, the relative viability in experiment [1] (first compound 0.01 µM) amounted to 0.932; in experiment [1] (first compound 0.03162 µM), 0.935; in experiment [1] (first compound 0.1 µM), 1.08; in experiment [1] (first compound 0.3162 µM) it was 1.26; in experiment [1] (first compound 1 µM), 0.844; in experiment [2] (first compound 0.2 µM), 0.244. Also, the figures for the relative viability in experiment [2] (first compound 0.6325 µM) and in experiment [2] (first compound 2 µM) were 0.137 and 0.109, respectively.

For SW 1573, the relative viability came out at 1.23 in experiment [1] (first compound 0.01 µM); 1.13 in experiment [1] (first compound 0.03162 µM); 1.13 in experiment [1] (first compound 0.1 µM); 1.27 in experiment [1] (first compound 0.3162 µM); 0.914 in experiment [1] (first compound 1 µM); 0.571 in experiment [2] (first compound 0.2 µM). In addition, the figures for the relative viability in experiment [2] (first compound 0.6325 µM) and in experiment [2] (first compound 2 µM) were 0.471 and 0.39, respectively.

On to NCI-H3122, for which the relative viability in experiment [1] (first compound 0.01 µM) was 1.06; in experiment [1] (first compound 0.03162 µM) it was 0.984; in experiment [1] (first compound 0.1 µM), 1.05; in experiment [1] (first compound 0.3162 µM), 1.01; in experiment [1] (first compound 1 µM) it was 1.01; in experiment [2] (first compound 0.2 µM), 0.211. For the same cell line, the values for the relative viability in experiment [2] (first compound 0.6325 µM) and in experiment [2] (first compound 2 µM) were 0.181 and 0.202, respectively.

On to NCI-H661, for which the relative viability turned out to be 1.09 in experiment [1] (first compound 0.01 µM); 0.664 in experiment [1] (first compound 0.03162 µM); 0.892 in experiment [1] (first compound 0.1 µM); 0.928 in experiment [1] (first compound 0.3162 µM); 0.8 in experiment [1] (first compound 1 µM); 0.449 in experiment [2] (first compound 0.2 µM). For the same cell line, the relative viability in experiment [2] (first compound 0.6325 µM) was determined as 0.426; in experiment [2] (first compound 2 µM), 0.429.

In the case of NCI-H441, the relative viability in experiment [1] (first compound 0.01 µM) was 0.662; in experiment [1] (first compound 0.03162 µM), 0.433; in experiment [1] (first compound 0.1 µM) it was 0.541; in experiment [1] (first compound 0.3162 µM), 0.593; in experiment [1] (first compound 1 µM) it was 0.335; in experiment [2] (first compound 0.2 µM), 0.515. Moreover, the relative viability is 0.459 in experiment [2] (first compound 0.6325 µM) and 0.321 in experiment [2] (first compound 2 µM).

Consider NCI-H596, for which the relative viability came to 1.13 in experiment [1] (first compound 0.01 µM); 1.13 in experiment [1] (first compound 0.03162 µM); 1.18 in experiment [1] (first compound 0.1 µM); 0.98 in experiment [1] (first compound 0.3162 µM); 1 in experiment [1] (first compound 1 µM); 0.396 in experiment [2] (first compound 0.2 µM). The relative viability in experiment [2] (first compound 0.6325 µM) came to 0.372; in experiment [2] (first compound 2 µM), 0.335.
